In paper PMC7827014, “Synthetic Transition from Thiourea-Based Compounds to Tetrazole Derivatives: Structure and Biological Evaluation of Synthesized New N-(Furan-2-ylmethyl)-1H-tetrazol-5-amine Derivatives” (Molecules, 2021):
≈ marks a conversion by molar mass, not a printed value. Where two headings read alike, the source gives them in different places.

Key:
[1] = test system: S. epidermidis T 5253 845/19; test: MIC microdilution, clinical isolate; assay type: cell-based; conditions: Staphylococcus epidermidis, T5253845/19
S. aureus 176/13 = test: MIC microdilution, clinical isolate; assay type: cell-based; conditions: Staphylococcus aureus
[2] = test system: S. epidermidis KR 4047 825/19; test: MIC microdilution, clinical isolate; assay type: cell-based
[3] = test system: S. epidermidis KR 4268 830/19; test: MIC microdilution, clinical isolate; assay type: cell-based; conditions: Staphylococcus epidermidis, KR4268830/19
[4] = test system: S. epidermidis KR 4243 829/19; test: MIC microdilution, clinical isolate; assay type: cell-based; conditions: Staphylococcus epidermidis, KR4243829/19
[5] = test system: S. epidermidis T 5399 848/19; test: MIC microdilution, clinical isolate; assay type: cell-based; conditions: Staphylococcus epidermidis, T5399848/19
M. tuberculosis H37Rv = test: In vitro antitubercular MIC; assay type: cell-based; conditions: Mycobacterium tuberculosis, read-out: Minimal inhibitory concentration
[6] = test system: S. epidermidis KR 4358/2 840/19; test: MIC microdilution, clinical isolate; assay type: cell-based; conditions: Staphylococcus epidermidis, KR4358/2840/19
[7] = test system: S. epidermidis ATCC 12228; test: MIC microdilution, standard strain; assay type: cell-based; conditions: Staphylococcus epidermidis, ATCC12228; S. epidermidis ATCC 12228, 18 h, 35 °C; read-out: MIC
HaCaT = test: MTT assay 72 h; assay type: cell-based, human; conditions: Homo sapiens; HaCaT normal cells, MTT 72 h, mean ± SD; read-out: IC50
Method: (§1) The cell viability was assessed by using an enzymatic conversion of 3-(4,5-dimethylthiazol-2-yl)-2,5-diphenyltetrazolium bromide salt (MTT) to insoluble formazan crystals by mitochondrial dehydrogenases, occurring in living cells. Cells were cultured in 96-well plates at a density of l × 10^4 cells per well, and cultured to adhere for 24 h at 37 °C in a CO2 incubator. After 24 h of incubation, culture medium was replaced with a fresh medium, then cells were treated with various concentrations of the compounds and incubated for 72 h at 37 °C in a CO2 incubator. Untreated cells were used as the control. Subsequently, MTT solution (0,5 mg/mL in free-serum medium) was added, and samples were incubated for 4 h at 37 °C in a CO2 incubator. Then, the medium was aspirated, and formed formazan crystals were solubilized by adding an isopropanol-DMSO mixture (1:1 vol). The intensity of the dissolved crystals was measured using a UVM 340 reader (ASYS Hitech GmbH, Austria), at a wavelength of 570 nm. Cell viability was presented as a percent of MTT reduced in treated cells versus control cells (incubated without tested compounds). The relative MTT level (%) was calculated as [A]/[B]×100, where [A] is the absorbance of the test sample, and [B] is the absorbance of the control sample containing the untreated cells. The IC50 value was estimated using CalcuSyn version 1.0. […]
(§2) Antiproliferative activity of tested compounds. Data are given as IC50 [µM] and SI.
(§3) Human immortal keratinocyte cell line from adult human skin (HaCaT), Human colorectal adenocarcinoma (CaCo-2), Human epithelial lung carcinoma cell line (A549) and Human melanoma cell line (HTB-140). Data are expressed as mean ± SD. The SI (Selectivity Index) was calculated for each compound using formula: SI = IC50 for normal cel line / IC50 cancer cel line.

A549 = test: MTT assay 72 h; assay type: cell-based, human; conditions: Homo sapiens; A549, MTT 72 h, mean ± SD; read-out: IC50
Method: as §1, §2, §3

HTB-140 = test: MTT assay 72 h; assay type: cell-based, human; conditions: Homo sapiens; HTB-140, MTT 72 h, mean ± SD
Method: as §1, §2, §3

S. aureus T5595/69 = test: MIC microdilution, clinical isolate; assay type: cell-based; conditions: Staphylococcus aureus
[8] = test system: standard bacterial strains; test: MIC, panel of standard bacterial strains; assay type: cell-based
Method: (§4) Compounds were screened for their minimal inhibitory concentrations (MICs).
(§5) The antimicrobial assays were conducted using reference strains of bacteria derived from international microbe collections—American Type Culture Collection (ATCC) and National Collection of Type Culture (NCTC). […] The antimicrobial activity of compounds was expressed by minimum inhibitory concentration values (MICs), according to CLCI reference procedures with some modifications. MIC was tested by the two-fold serial microdilution method (in 96-well microtiter plates) on MH II liquid medium. […] The stock solution of tested compounds was prepared in DMSO, and diluted in sterile medium (to a maximum of 1% of solvent content). […] Clinical microorganisms used in this study were obtained from the collection of the Department of Pharmaceutical Microbiology, Medical University of Warsaw, Poland.

S. aureus ATCC 29213 = test: MIC microdilution, standard strain; assay type: cell-based; conditions: Staphylococcus aureus, ATCC29213; S. aureus ATCC 29213, 18 h, 35 °C; read-out: MIC
[9] = test system: hospital staphylococcal isolates; test: MIC, panel of clinical staphylococcal isolates; assay type: cell-based
Method: as §4, §5

S. aureus T5403/51 = test: MIC microdilution, clinical isolate; assay type: cell-based; conditions: Staphylococcus aureus
S. aureus T5591/68 = test: MIC microdilution, clinical isolate; assay type: cell-based; conditions: Staphylococcus aureus
E. coli NCTC 8196 = test: MIC microdilution, standard strain; assay type: cell-based; conditions: Escherichia coli, NCTC8196; E. coli NCTC 8196, 18 h, 35 °C; read-out: MIC
[10] = test system: M. tuberculosis INH susceptible (Spec. 192); test: In vitro antitubercular MIC; assay type: cell-based; conditions: Mycobacterium tuberculosis, read-out: Minimal inhibitory concentration
S. aureus 155/6 = test: MIC microdilution, clinical isolate; assay type: cell-based; conditions: Staphylococcus aureus
[11] = test system: S. epidermidis T 5501 851/19; test: MIC microdilution, clinical isolate; assay type: cell-based; conditions: Staphylococcus epidermidis, T5501851/19
[12] = test system: S. epidermidis KR 4313 834/19; test: MIC microdilution, clinical isolate; assay type: cell-based; conditions: Staphylococcus epidermidis, KR4313834/19
S. aureus T5241/46 = test: MIC microdilution, clinical isolate; assay type: cell-based; conditions: Staphylococcus aureus
Caco-2 = test: MTT assay 72 h; assay type: cell-based; conditions: Homo sapiens; Caco-2, MTT 72 h, mean ± SD; read-out: IC50
Method: as §1, §2, §3

S. aureus 203/19 = test: MIC microdilution, clinical isolate; assay type: cell-based; conditions: Staphylococcus aureus
S. aureus NCTC 4163 = test: MIC microdilution, standard strain; assay type: cell-based; conditions: Staphylococcus aureus, NCTC4163; S. aureus NCTC 4163, 18 h, 35 °C; read-out: MIC
E. hirae ATCC 10541 = test: MIC microdilution, standard strain; assay type: cell-based; conditions: Enterococcus hirae, ATCC10541; E. hirae ATCC 10541, 18 h, 35 °C; read-out: MIC
S. aureus T5384/48 = test: MIC microdilution, clinical isolate; assay type: cell-based; conditions: Staphylococcus aureus
E. coli ATCC 25922 = test: MIC microdilution, standard strain; assay type: cell-based; conditions: Escherichia coli, ATCC25922; E. coli ATCC 25922, 18 h, 35 °C; read-out: MIC

Fc1ccccc1-n1nnnc1NCc1ccco1 [Compound 6, 1-(2-fluorophenyl)-N-(furan-2-ylmethyl)-1H-tetrazol-5-amine] was tested, and the MIC [1] was 8 µg/mL (≈ 30.9 µM), the MIC (S. aureus 176/13) was 8 µg/mL (≈ 30.9 µM) and the “strength relative to Ciprofloxacin” value ([2]; S. epidermidis KR 4047 825/19 isolate) was “half of the Ciprofloxacin strength”. It also gave an MIC ([2]; Staphylococcus epidermidis, KR4047825/19, clinical isolate S. epidermidis KR 4047 825/19) of 8 µg/mL (≈ 30.9 µM), an MIC [3] of 8 µg/mL (≈ 30.9 µM) and an MIC [4] of 4 µg/mL (≈ 15.4 µM). It also gave an MIC [5] of 4 µg/mL (≈ 15.4 µM), an MIC (M. tuberculosis H37Rv) of 512 µg/mL (≈ 1970 µM) and an MIC [6] of 4 µg/mL (≈ 15.4 µM). For the same compound, the MIC [7] was 32 µg/mL (≈ 123 µM), the IC50 (HaCaT) was greater than 100 µM and the IC50 (A549) was greater than 100 µM. The IC50 (HTB-140) was greater than 100 µM, the MIC (S. aureus T5595/69) was 8 µg/mL (≈ 30.9 µM) and the MIC ([8]; some Gram-negative strains) was 16 µg/mL (≈ 61.7 µM). For the same compound, the “MIC (range)” value ([8]; standard Staphylococci) was 8 to 32 µg/mL, the MIC (S. aureus ATCC 29213) was 8 µg/mL (≈ 30.9 µM) and the MIC ([9]; Staphylococcus aureus, rest of studied Staphylococci, except S. aureus 155/6, read-out: MICs) was 8 µg/mL (≈ 30.9 µM). The MIC ([9]; Staphylococcus epidermidis, four hospital S. epidermidis isolates, read-out: MIC) was 4 µg/mL (≈ 15.4 µM), the “growth inhibitory strength relative to Ciprofloxacin” value ([9]; two clinical S. epidermidis strains) was 8–16 fold and the MIC (S. aureus T5403/51) was 8 µg/mL (≈ 30.9 µM). The MIC (S. aureus T5591/68) was 8 µg/mL (≈ 30.9 µM), the MIC (E. coli NCTC 8196) was 512 µg/mL (≈ 1970 µM) and the MIC [10] was 512 µg/mL (≈ 1970 µM). It also gave an MIC (S. aureus 155/6) of 16 µg/mL (≈ 61.7 µM), an MIC [11] of 2 µg/mL (≈ 7.71 µM) and an MIC [12] of 4 µg/mL (≈ 15.4 µM). For the same compound, the MIC (S. aureus T5241/46) was 8 µg/mL (≈ 30.9 µM), the IC50 (Caco-2) was greater than 100 µM and the MIC (S. aureus 203/19) was 8 µg/mL (≈ 30.9 µM). For the same compound, the MIC (S. aureus NCTC 4163) was 8 µg/mL (≈ 30.9 µM), the MIC (E. hirae ATCC 10541) was 16 µg/mL (≈ 61.7 µM) and the MIC (S. aureus T5384/48) was 8 µg/mL (≈ 30.9 µM). For the same compound, the MIC (E. coli ATCC 25922) was 16 µg/mL (≈ 61.7 µM).
